According to paper PMC8835363, “Arachidin-1, a Prenylated Stilbenoid from Peanut, Induces Apoptosis in Triple-Negative Breast Cancer Cells” (International Journal of Molecular Sciences, 2022):
Read-outs that look alike come from different tables or passages of the source.

Key:
[1] = tested on: human leukemia HL-60 cell line; design: method as in PMID 21067217; details: 72 h treatment; cited from earlier work
[2] = tested on: UDP-glucuronosyltransferases; details: in vitro metabolism; cited from earlier work
MDA-MB-436 cells = experiment: RealTime-Glo MT cell viability (cytotoxicity) assay; assay type: cell-based, human; details: MDA-MB-436
Protocol: (§1) The cytotoxicity of RES, A-1, and A-3 was measured using the RealTime-Glo^TM MT Cell Viability Assay (Promega, Madison, WI, USA). The cells (10,000 cells/well) were seeded into 96-well plates. […] Cells with 0.1% DMSO (ATCC; Manassas, VA, USA) were included as a control. Luminescence was measured every 12 h for 72 total hours in a Cytation^TM 5 (BioTek, Winooski, VT, USA) plate reader. All experiments were performed in triplicates.

MDA-MB-231 cells = experiment: as above; assay type: cell-based, human; details: MDA-MB-231; for IC50: Homo sapiens
Protocol: as §1

MDA-MB-231 = tested on: MDA-MB-231; design: method as in PMID 32721999, PMID 33643572; details: 24 h treatment, MTT assay; cited from earlier work
MCF-7 cells = tested on: MCF-7 cells; design: method as in PMID 32721999, PMID 33643572; details: cited from earlier work
[3] = Homo sapiens, MDA-MB-436, 24 h, 24 h
[4] = Homo sapiens, MDA-MB-436, 24 h, 24 h, in Figure 2 panels
[5] = Homo sapiens, MDA-MB-436, 48 h, 48 h
[6] = Homo sapiens, MDA-MB-436, 72 h, 72 h
[7] = MDA-MB-231, 24 h, 24 h, in Figure 2 panels
[8] = MDA-MB-231, 24 h, 24 h of treatment
[9] = MDA-MB-231, 48 h, 48 h of treatment
[10] = MDA-MB-231, 72 h, 72 h of treatment

Row | Compound | IC50 [1] | glucuronidated products compared to non-prenylated analogs piceatannol and RES [2] | IC50 (MDA-MB-436 cells; [3]) | IC50 (MDA-MB-436 cells; [4]) | IC50 (MDA-MB-436 cells; [5]) | IC50 (MDA-MB-436 cells; [6]) | growth inhibition at low concentrations (MDA-MB-436 cells; 0.01-10 µM, 72 h) | IC50 (MDA-MB-436 cells; 72 h) | IC50 (MDA-MB-231 cells; [7]) | IC50 (MDA-MB-231 cells; [8]) | IC50 (MDA-MB-231 cells; [9]) | IC50 (MDA-MB-231 cells; [10]) | growth inhibition at low concentrations (MDA-MB-231 cells; 0.01-10 µM, 72 h) | IC50 (MDA-MB-231) | IC50 (MDA-MB-231 cells; MDA-MB-231, 48 h, 48 h, in Figure 2 panels) | IC50 (MCF-7 cells; 24 h treatment) | IC50 (MCF-7 cells; 48 h treatment)
1 | CC(C)/C=C/c1c(O)cc(/C=C/c2ccc(O)cc2)cc1O [A-3, arachidin-3] | 18.9 µM | lower glucuronidated products | 11 µM | 10.9 µM | 16.7 µM | 19.8 µM | no growth inhibition below 10 µM | 19.8 µM | 9.51 µM | 18.7 µM | 16.2 µM | 18.7 µM | no growth inhibition below 10 µM |  |  |  | 
2 | Oc1ccc(/C=C/c2cc(O)cc(O)c2)cc1 [RES, resveratrol, reference compound] | 17.6 µM |  | 37.5 µM | 9.16 µM | 23.7 µM | 15.7 µM |  |  | 6.27 µM | 32.1 µM | 6.54 µM | 10.8 µM |  | 144 µM | 11.5 µM | 131 µM | 83.9 µM
